Reference: patent US10683273B2, “Compounds as DNA probes, methods and applications thereof” (JAWAHARLAL NEHRU CENTRE FOR ADVANCED SCIENTIFIC RESEARCH, priority 2015, dated 2020)

Columns and labels:
[1] = test system: DNA; experiment: Stokes shift from absorption and emission spectra, in presence of DNA; type: physicochemical; settings: present disclosure
Procedure: The UV-vis absorption and emission spectra are recorded on Agilent Technologies Cary series UV-vis-NIR absorbance and Cary eclipse fluorescence spectrophotometers, respectively. Thermal denaturation (UV-melting) studies are carried out on Cary 5000 UV-vis-NIR spectrophotometer equipped with Cary temperature controller in the range of 10° C. to 90° C. with a ramp rate of 1° C./min. The variable temperature/wavelength mode is used. Absorption is monitored at 260 nm with regular 5° C. intervals. Melting temperatures (Tm) of DNA samples are calculated from the first derivatives of the absorption vs. temperature curves (thermal denaturation or melting curves) obtained by monitoring at 260 nm.
The molecular interactions of QCy-DT is studied by evaluating the absorption and emission properties in Tris-buffer (100 mM, pH=7.4) under ambient conditions. […] The NIR-fluorescence of QCy-DT arises due to extended through the Cy7 backbone and ICT process. The weak or non-fluorescent behavior of dye molecules in buffer solution is mainly attributed to the intramolecular twisting processes, which cause quenching of the fluorescence of cyanine dyes, solvation with water molecules also aids the fluorescence quenching by means of deactivation of […]. […]

[2] = test system: RNA; experiment: Fluorescence response with RNA; type: binding; settings: QCy-DT 2 μM, RNA 4 μM, Tris-HCl
Procedure: All the chemicals, reagents, single-stranded oligos (dA20, dT20, dG20, dC20), self-complementary oligos {d(ATAT)5, (D1)mix, Drew-AT, Calf-Thymus DNA (CT-DNA), (DM1, DM2, DM3, DM4, DM5, DM6 and DM7)}, RNA, were purchased from Sigma-Aldrich. ^1H and ^13C NMR spectra were recorded on a Bruker AV-400 MHz spectrometer with chemical shifts reported as parts per million (ppm) (in DMSO-d6, tetramethylsilane as an internal standard) at 20° C. UV-vis absorption and emission spectra were measured in quartz cuvettes of 1 cm path length. High resolution mass spectra (HRMS) were obtained on Agilent Technologies 6538 UHD Accurate-Mass Q-TOF LC/MS spectrometer. All biophysical studies (UV-vis, fluorescence and Cirular dichroism) are carried out at the concentration 0-5 μM of probe, volume=500 μL, temperature=25° C. and time of incubation=2 minutes. […]
The UV-vis absorption and emission spectra are recorded on Agilent Technologies Cary series UV-vis-NIR absorbance and Cary eclipse fluorescence spectrophotometers, respectively. […] Absorption is monitored at 260 nm with regular 5° C. intervals. Melting temperatures (Tm) of DNA samples are calculated from the first derivatives of the absorption vs. temperature curves (thermal denaturation or melting curves) obtained by monitoring at 260 nm. […]

Stokes shift in presence of DNA [1]: 86 nm
Structure (SMILES): C[n+]1c(/C=C/c2ccc(O)c(/C=C/c3sc4ccccc4[n+]3C)c2)sc2ccccc21 [QCy-DT, quinone cyanine-dithiazole]
fluorescence response [2]: very weak response
